From ChEMBL document CHEMBL1201862, “PubChem BioAssay data set” (2004)
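Briefly, cells in 96-well plates were exposed to five compound concentrations for 48 h, and endpoints were estimated by linear interpolation. Here, GI50 denotes the concentration required for 50% inhibition of growth.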 Active and inactive are the calls of the source. No stated cut-off is given here; in the data, active = GI50 up to about 1.1 µM and inactive = higher.

Key:
Test in all cases: DTP human tumour cell line panel, 48 h
786-0 = tested on: 786-0
A498 = tested on: A498
A549 = tested on: A549
ACHN = tested on: ACHN
CCRF-CEM = tested on: CCRF-CEM
DU-145 = tested on: DU-145
HCC 2998 = tested on: HCC 2998
IGROV-1 = tested on: IGROV-1
K562 = tested on: K562
M14 = tested on: M14
MDA-MB-435 = tested on: MDA-MB-435
Malme-3M = tested on: Malme-3M
NCI-H226 = tested on: NCI-H226
OVCAR-3 = tested on: OVCAR-3
OVCAR-5 = tested on: OVCAR-5
SW-620 = tested on: SW-620
T47D = tested on: T47D
U-251 = tested on: U-251
UACC-257 = tested on: UACC-257
NCI/ADR-RES = tested on: NCI/ADR-RES

| Structure (SMILES) | GI50 (786-0) | GI50 (A498) | GI50 (A549) | GI50 (ACHN) | GI50 (CCRF-CEM) | GI50 (DU-145) | GI50 (HCC 2998) | GI50 (IGROV-1) | GI50 (K562) | GI50 (M14) | GI50 (MDA-MB-435) | GI50 (Malme-3M) | GI50 (NCI-H226) | GI50 (OVCAR-3) | GI50 (OVCAR-5) | GI50 (SW-620) | GI50 (T47D) | GI50 (U-251) | GI50 (UACC-257) | GI50 (NCI/ADR-RES) |
| --- | --- | --- | --- | --- | --- | --- | --- | --- | --- | --- | --- | --- | --- | --- | --- | --- | --- | --- | --- | --- |
| C=C(CN(C)C)C(=O)c1ccc(OC2OC(COC(C)=O)C(OC(C)=O)C(OC(C)=O)C2OC(C)=O)cc1 (centres undefined) | 2.24 µM (inactive) | 14.1 µM (inactive) | 21.2 µM (inactive) | 1.62 µM (inactive) | 0.185 µM (active) | 17.5 µM (inactive) | 18.1 µM (inactive) | 13.4 µM (inactive) | 0.533 µM (active) | 2.4 µM (inactive) | 6.18 µM (inactive) | 1.96 µM (inactive) | 7.36 µM (inactive) | 2.25 µM (inactive) | 16.5 µM (inactive) | 0.678 µM (active) | 2.9 µM (inactive) | 15.8 µM (inactive) | 2.34 µM (inactive) | – |
| NC(CSC1(c2ccc(Cl)cc2)c2ccccc2-c2ccccc21)C(=O)O (centres undefined) | 20.8 µM (inactive) | 17.1 µM (inactive) | 31.3 µM (inactive) | 22.8 µM (inactive) | 29.1 µM (inactive) | 34.5 µM (inactive) | – | 13.5 µM (inactive) | 26.2 µM (inactive) | 26.4 µM (inactive) | 14.4 µM (inactive) | 19.6 µM (inactive) | 27.2 µM (inactive) | 17.4 µM (inactive) | 30.3 µM (inactive) | 42.6 µM (inactive) | 29 µM (inactive) | 15.8 µM (inactive) | 15.9 µM (inactive) | 39.1 µM (inactive) |
| N#Cc1c(-c2ccccc2)c(/N=N/c2ccc(Cl)cc2)c(=O)n2c1[nH]c1ccccc12 | 23.6 µM (inactive) | > 100 µM (inactive) | > 100 µM (inactive) | > 100 µM (inactive) | > 100 µM (inactive) | – | 52.6 µM (inactive) | 73.1 µM (inactive) | – | > 100 µM (inactive) | > 100 µM (inactive) | > 100 µM (inactive) | 65.9 µM (inactive) | > 100 µM (inactive) | > 100 µM (inactive) | > 100 µM (inactive) | 97.1 µM (inactive) | 21.2 µM (inactive) | > 100 µM (inactive) | 92.9 µM (inactive) |
| O=C1/C(=C/c2ccc(Cl)cc2)CSc2ccccc21 | 17.5 µM (inactive) | 62.5 µM (inactive) | 45.5 µM (inactive) | – | 3.1 µM (inactive) | 38.2 µM (inactive) | – | 23.7 µM (inactive) | 3.37 µM (inactive) | 31.8 µM (inactive) | 4.86 µM (inactive) | 25.5 µM (inactive) | 17.4 µM (inactive) | 22.3 µM (inactive) | – | 3.71 µM (inactive) | 28 µM (inactive) | 5.87 µM (inactive) | 12.7 µM (inactive) | 16.6 µM (inactive) |
| O=P(c1ccccc1)(c1ccccc1)N1O[C@@H](c2ccccc2)C=C[C@H]1c1ccccc1 | 10.4 µM (inactive) | – | 8.81 µM (inactive) | 10.2 µM (inactive) | 10.5 µM (inactive) | 13 µM (inactive) | 13.7 µM (inactive) | 10.8 µM (inactive) | 6.17 µM (inactive) | 10.9 µM (inactive) | 4.2 µM (inactive) | 14.5 µM (inactive) | 11.9 µM (inactive) | 11.6 µM (inactive) | 16 µM (inactive) | 12.9 µM (inactive) | 4.61 µM (inactive) | 4.37 µM (inactive) | 11.9 µM (inactive) | 7.13 µM (inactive) |
| Cc1cc(C)c2nc3c(c(C(O)C4CCCCN4)c2c1)CC/C3=C\c1ccc(Cl)cc1 (centres undefined) | 67.8 µM (inactive) | > 100 µM (inactive) | 76 µM (inactive) | 78.3 µM (inactive) | 25.4 µM (inactive) | 81.1 µM (inactive) | – | 84.1 µM (inactive) | 38 µM (inactive) | 75.9 µM (inactive) | 55.1 µM (inactive) | > 100 µM (inactive) | > 100 µM (inactive) | 42.1 µM (inactive) | 41.1 µM (inactive) | 55.3 µM (inactive) | 30.3 µM (inactive) | 60.4 µM (inactive) | 32.8 µM (inactive) | 52.1 µM (inactive) |
| N=C(N)N/N=C/c1nc2sccn2c1[N+](=O)[O-] | 43 µM (inactive) | 56.1 µM (inactive) | 35.4 µM (inactive) | 60.3 µM (inactive) | – | 22.3 µM (inactive) | – | 60.4 µM (inactive) | 18.7 µM (inactive) | 22.6 µM (inactive) | 19.8 µM (inactive) | 13.3 µM (inactive) | 81.1 µM (inactive) | 17.9 µM (inactive) | > 100 µM (inactive) | 29.4 µM (inactive) | 18.2 µM (inactive) | 28.6 µM (inactive) | 16.3 µM (inactive) | > 100 µM (inactive) |
| CN(C(=O)Cc1ccc(Cl)c(Cl)c1)[C@H]1CCCC[C@@H]1[N+]1(C)CCCC1 | > 100 µM (inactive) | > 100 µM (inactive) | > 100 µM (inactive) | > 100 µM (inactive) | 3.37 µM (inactive) | > 100 µM (inactive) | – | > 100 µM (inactive) | > 100 µM (inactive) | > 100 µM (inactive) | > 100 µM (inactive) | > 100 µM (inactive) | > 100 µM (inactive) | > 100 µM (inactive) | > 100 µM (inactive) | > 100 µM (inactive) | > 100 µM (inactive) | > 100 µM (inactive) | > 100 µM (inactive) | > 100 µM (inactive) |
| c1ccc(/N=C(/Nc2ccccc2)N2CCCC2)cc1 | > 100 µM (inactive) | – | > 100 µM (inactive) | > 100 µM (inactive) | > 100 µM (inactive) | > 100 µM (inactive) | – | > 100 µM (inactive) | > 100 µM (inactive) | > 100 µM (inactive) | > 100 µM (inactive) | > 100 µM (inactive) | > 100 µM (inactive) | > 100 µM (inactive) | > 100 µM (inactive) | > 100 µM (inactive) | > 100 µM (inactive) | > 100 µM (inactive) | > 100 µM (inactive) | > 100 µM (inactive) |
| N/C(=N\c1ccc(Cl)cc1)NS(=O)(=O)c1cc(Cl)c(Oc2ccc([N+](=O)[O-])cc2Cl)c(Cl)c1 | 18.9 µM (inactive) | 15.5 µM (inactive) | 17.2 µM (inactive) | 16 µM (inactive) | 19.7 µM (inactive) | 15.7 µM (inactive) | – | 15.8 µM (inactive) | 18.7 µM (inactive) | 18.6 µM (inactive) | 18.4 µM (inactive) | > 100 µM (inactive) | 17.1 µM (inactive) | 16.8 µM (inactive) | 19.7 µM (inactive) | 20 µM (inactive) | 14.8 µM (inactive) | 14.8 µM (inactive) | 16.6 µM (inactive) | 17.2 µM (inactive) |
| COc1ccc2cc(NC(=O)Nn3cnnc3)ccc2c1 | > 100 µM (inactive) | > 100 µM (inactive) | > 100 µM (inactive) | > 100 µM (inactive) | > 100 µM (inactive) | > 100 µM (inactive) | > 100 µM (inactive) | > 100 µM (inactive) | > 100 µM (inactive) | > 100 µM (inactive) | > 100 µM (inactive) | > 100 µM (inactive) | > 100 µM (inactive) | > 100 µM (inactive) | > 100 µM (inactive) | > 100 µM (inactive) | > 100 µM (inactive) | > 100 µM (inactive) | > 100 µM (inactive) | – |
| CC(=O)n1[nH]c(=O)n(-c2ccc(Cl)cc2)c1=O | > 100 µM (inactive) | – | > 100 µM (inactive) | > 100 µM (inactive) | > 100 µM (inactive) | > 100 µM (inactive) | > 100 µM (inactive) | > 100 µM (inactive) | > 100 µM (inactive) | > 100 µM (inactive) | > 100 µM (inactive) | 45.9 µM (inactive) | > 100 µM (inactive) | > 100 µM (inactive) | > 100 µM (inactive) | > 100 µM (inactive) | > 100 µM (inactive) | > 100 µM (inactive) | > 100 µM (inactive) | > 100 µM (inactive) |
| CN(NC(=O)c1cccs1)C1=NCCN1 | > 100 µM (inactive) | > 100 µM (inactive) | > 100 µM (inactive) | > 100 µM (inactive) | > 100 µM (inactive) | – | > 100 µM (inactive) | > 100 µM (inactive) | > 100 µM (inactive) | > 100 µM (inactive) | > 100 µM (inactive) | > 100 µM (inactive) | > 100 µM (inactive) | > 100 µM (inactive) | > 100 µM (inactive) | > 100 µM (inactive) | > 100 µM (inactive) | > 100 µM (inactive) | > 100 µM (inactive) | > 100 µM (inactive) |
| CCOP1(=O)OCC2OC(n3cnc4c(N)ncnc43)C(O)C2O1.c1ccccc1 (centres undefined) | > 100 µM (inactive) | > 100 µM (inactive) | > 100 µM (inactive) | > 100 µM (inactive) | – | > 100 µM (inactive) | – | > 100 µM (inactive) | > 100 µM (inactive) | > 100 µM (inactive) | > 100 µM (inactive) | > 100 µM (inactive) | > 100 µM (inactive) | > 100 µM (inactive) | > 100 µM (inactive) | > 100 µM (inactive) | > 100 µM (inactive) | > 100 µM (inactive) | > 100 µM (inactive) | > 100 µM (inactive) |
| CCCCC(=O)N/S(=N/C(=O)c1ccccc1)C(Cl)(Cl)Cl (centres undefined) | > 100 µM (inactive) | – | > 100 µM (inactive) | > 100 µM (inactive) | > 100 µM (inactive) | > 100 µM (inactive) | > 100 µM (inactive) | > 100 µM (inactive) | > 100 µM (inactive) | > 100 µM (inactive) | > 100 µM (inactive) | > 100 µM (inactive) | > 100 µM (inactive) | > 100 µM (inactive) | > 100 µM (inactive) | > 100 µM (inactive) | > 100 µM (inactive) | > 100 µM (inactive) | > 100 µM (inactive) | > 100 µM (inactive) |
